pIC50: −log10 of the molar value.

human MRGPRD, sequence (Q8TDS7 whole entry): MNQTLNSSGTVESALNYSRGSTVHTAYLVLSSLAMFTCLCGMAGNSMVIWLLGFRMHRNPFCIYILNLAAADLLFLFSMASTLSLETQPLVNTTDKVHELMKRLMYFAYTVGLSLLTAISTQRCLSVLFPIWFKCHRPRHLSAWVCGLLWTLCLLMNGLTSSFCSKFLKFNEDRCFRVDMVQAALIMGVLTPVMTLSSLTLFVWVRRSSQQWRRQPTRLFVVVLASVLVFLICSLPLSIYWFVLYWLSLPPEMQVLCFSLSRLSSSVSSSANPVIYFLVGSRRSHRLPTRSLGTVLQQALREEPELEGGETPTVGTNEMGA

This assay addresses human MRGPRD (Homo sapiens, UniProt Q8TDS7). Kind of assay: MRGPRD antagonist activity, IP-One HTRF assay in CHO cells stably expressing human MRGPRD (versus 100 μM β-Alanine agonist). Type of assay: cell-based. The procedure, abridged:
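IP-1 HTRF read-out, with IC50 from HTRF ratio curves and percent antagonism relative to maximal efficacy (mean, SEM). Antagonists and agonist were co-incubated 1 h at 37 °C plus 1 h at room temperature on overnight-plated MRGPRD-CHO cells in LiCl-containing Tris buffer, pH 8.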
Broadly, the pIC50 is −log10 of the IC50, conventionally taken in molar units. Consider `O=C(Nc1ccncc1)c1nnn(-c2cccc(-c3cccc(O)c3)c2)c1C1CC1` [Compound 7-299], for which the pIC50 was 5.52 to 6.00.
As for `Cc1nn(C)c(C)c1-c1ccc(-n2nnc(C(=O)Nc3ccncc3)c2C2CC2)c(C(F)(F)F)c1` [Compound 7-300], the pIC50 is 5.52 to 6.00.
`COCn1cc(-c2cccc(-n3nnc(C(=O)Nc4ccncc4)c3C3CC3)c2)cn1` [Compound 7-301] had a pIC50 of 5.52 to 6.00.
Turning to `O=C(Nc1ccncc1)c1nnn(-c2cccc(-c3ccccc3Cl)c2)c1C1CC1` [Compound 7-302], the pIC50 is 5.52 to 6.00.
In the case of `COc1ccc(-c2cccc(-n3nnc(C(=O)Nc4ccncc4)c3C3CC3)c2)cc1F` [Compound 7-303] it was 5.52 to 6.00; in that of `CCc1ccc(-n2nnc(C(=O)Nc3ccncc3)c2C2CC2)cc1-c1cnn(C(C)C)c1` [Compound 7-304], 5.52 to 6.00.
In the case of `Cc1c(-c2cccc(-n3nnc(C(=O)Nc4ccncc4)c3C3CC3)c2)cnn1C` [Compound 7-305] it was 5.52 to 6.00.
`CCCn1cc(-c2cccc(-n3nnc(C(=O)Nc4ccncc4)c3C3CC3)c2)cn1` [Compound 7-306] had a pIC50 of 5.52 to 6.00.
For `O=C(Nc1ccncc1)c1nnn(-c2cccc(-c3ccc(Cl)cc3)c2)c1C1CC1` [Compound 7-307], the pIC50 was 5.52 to 6.00.
Under `O=C(Nc1ccncc1)c1nnn(-c2cccc(-c3cccc(F)c3)c2)c1C1CC1` [Compound 7-308] stands 5.52 to 6.00; under `CCn1cc(-c2cccc(-n3nnc(C(=O)Nc4ccncc4)c3C3CC3)c2)cn1` [Compound 7-309], 5.52 to 6.00.
Molecule `O=C(Nc1ccncc1)c1nnn(-c2cccc(-c3cn[nH]c3)c2)c1C1CC1` [Compound 7-310] had a pIC50 of 5.52 to 6.00.
Under `O=C(Nc1ccncc1)c1nnn(-c2cccc(-c3ccc(F)cc3)c2)c1C1CC1` [Compound 7-311] stands 5.52 to 6.00; under `O=C(Nc1ccncc1)c1nnn(-c2cccc(-c3ccc(-c4ccccc4)cc3)c2)c1C1CC1` [Compound 7-312], 5.52 to 6.00; under `COc1ccc(-c2cccc(-n3nnc(C(=O)Nc4ccncc4)c3C3CC3)c2)cc1OC` [Compound 7-313], 5.52 to 6.00.
Regarding `O=C(Nc1ccncc1)c1nnn(-c2cccc(-c3cnn(C4CC4)c3)c2)c1C1CC1` [Compound 7-314], the negative logarithm of the IC50 (pIC50) is 5.52 to 6.00.
As for `Cc1cc(-n2nnc(C(=O)Nc3ccncc3)c2C2CC2)ccc1-c1c(C)nn(C)c1C` [Compound 7-315], the pIC50 was 5.52 to 6.00.
The molecule `Cc1nn(C)cc1-c1cccc(-n2nnc(C(=O)Nc3ccncc3)c2C2CC2)c1` [Compound 7-316] showed a pIC50 of 5.52 to 6.00.
Under `CCc1ccc(-n2nnc(C(=O)Nc3ccncc3)c2C2CC2)cc1-c1cccc(C(C)=O)c1` [Compound 7-317] stands 5.52 to 6.00; under `Cc1ccc(-c2cccc(-n3nnc(C(=O)Nc4ccncc4)c3C3CC3)c2)cc1` [Compound 7-318], 5.52 to 6.00; under `Cc1cc(-n2nnc(C(=O)Nc3ccncc3)c2C2CC2)ccc1-c1ccc(C#N)cc1` [Compound 7-319], 5.52 to 6.00.
Consider `COc1ccccc1-c1cccc(-n2nnc(C(=O)Nc3ccncc3)c2C2CC2)c1` [Compound 7-320], for which the pIC50 is 5.52 to 6.00.
`Cc1cccc(-c2cccc(-n3nnc(C(=O)Nc4ccncc4)c3C3CC3)c2)c1` [Compound 7-321] gave a pIC50 of 5.52 to 6.00.
Under `Cc1ccccc1-c1cccc(-n2nnc(C(=O)Nc3ccncc3)c2C2CC2)c1` [Compound 7-322] stands 5.52 to 6.00.
Under `CCc1cccc(-c2cccc(-n3nnc(C(=O)Nc4ccncc4)c3C3CC3)c2)c1` [Compound 7-323] stands 5.52 to 6.00.
Under `O=C(Nc1ccncc1)c1nnn(-c2cccc(-c3cccc(Cl)c3)c2)c1C1CC1` [Compound 7-324] stands 5.52 to 6.00; under `Cc1nn(C)c(C)c1-c1cccc(-n2nnc(C(=O)Nc3ccncc3)c2C2CC2)c1` [Compound 7-325], 5.52 to 6.00.
`Cn1cc(-c2cccc(-n3nnc(C(=O)Nc4ccncc4)c3C3CC3)c2)cn1` [Compound 7-326] showed a pIC50 of 5.52 to 6.00.
In turn, `O=C(Nc1ccncc1)c1nnn(-c2ccc(-c3ccccc3-c3ccccc3)cc2)c1C1CC1` [Compound 7-327] had a pIC50 of 5.52 to 6.00.
Regarding `O=C(Nc1ccncc1)c1nnn(-c2cccc(-c3cccc(-c4ccccc4)c3)c2)c1C1CC1` [Compound 7-328], the pIC50 is < 5.52.
As for `O=C(Nc1ccncc1)c1nnn(-c2cccc(-c3cnn(C(F)F)c3)c2)c1C1CC1` [Compound 7-329], the pIC50 is < 5.52.
Under `N#CCc1ccc(-c2cccc(-n3nnc(C(=O)NC4(c5cccnc5)CC4)c3C3CC3)c2)c(F)c1` [Compound 7-330] stands < 5.52; under `Cc1nn(C)c(C)c1-c1ccc(-n2nnc(C(=O)Nc3ccncc3)c2C2CC2)cc1C(F)(F)F` [Compound 7-331], < 5.52; under `Cc1ccc(CNC(=O)c2nnn(-c3cccc(-c4ccn(C)n4)c3)c2C2CC2)cn1` [Compound 7-332], < 5.52.
In the case of `Cc1ccc(CNC(=O)c2nnn(-c3cccc(-c4cnn(C5CC5)c4)c3)c2C2CC2)cn1` [Compound 7-333] it was < 5.52.
In the case of `N#Cc1ccccc1-c1cccc(-n2nnc(C(=O)Nc3ccncc3)c2C2CC2)c1` [Compound 7-334] it was < 5.52.
For the molecule `Cc1nn(C)c(C)c1-c1ccc(-n2nnc(C(=O)Nc3ccncc3)c2C2CC2)cc1OC(F)(F)F` [Compound 7-335], the pIC50 was < 5.52.
In the case of `Cc1cc(NC(=O)c2nnn(-c3ccc(-c4c(C)nn5ccccc45)cc3)c2C2CC2)ccn1` [Compound 8-1] it was > 7.00; in that of `Cc1cc(NC(=O)c2nnn(-c3ccc(-c4c(C)nn(C5CCC5)c4C)cc3)c2C2CC2)ccn1` [Compound 8-2, 1-(4-(1-cyclobutyl-3,5-dimethyl-1H-pyrazol-4-yl)phenyl)-5-cyclopropyl-N-(2-methylpyridin-4-yl)-1H-1,2,3-triazole-4-carboxamide], > 7.00; in that of `Cc1ccc(CNC(=O)c2nnn(-c3ccc(-c4c(C)nn(C)c4F)cc3)c2C2CC2)cn1` [Compound 8-3], 6.30 to 7.00.
In the case of `Cc1ccc(CNC(=O)c2nnn(-c3ccc(-c4cnn5c4CCC5)cc3)c2C2CC2)cn1` [Compound 8-4] it was 5.52 to 6.00.
Regarding `CCn1nc(C)c(-c2ccc(-n3nnc(C(=O)Nc4ccnc(C)c4)c3C3CC3)cc2)c1C` [Compound 9-1, 5-cyclopropyl-1-(4-(1-ethyl-3,5-dimethyl-1H-pyrazol-4-yl)phenyl)-N-(2-methylpyridin-4-yl)-1H-1,2,3-triazole-4-carboxamide], the pIC50 was > 7.00.
Under `CCc1cc(NC(=O)c2nnn(-c3ccc(-c4c(C)nn(C)c4C)cc3)c2C2CC2)ccn1` [Compound 9-2] stands > 7.00.
Under `CCc1cc(NC(=O)c2nnn(-c3ccc(-c4c(C)nn(-c5ccccc5)c4C)cc3)c2C2CC2)ccn1` [Compound 9-3] stands > 7.00; under `Cc1ncccc1CNC(=O)c1nnn(-c2ccc(-c3c(C)nn(-c4ccccc4)c3C)cc2)c1C1CC1` [Compound 9-4], > 7.00; under `CCn1nc(C)c(-c2ccc(-n3nnc(C(=O)NCc4cccnc4C)c3C3CC3)cc2)c1C` [Compound 9-5], > 7.00.
For the molecule `Cc1ccc(C2(NC(=O)c3nnn(-c4ccc(-c5c(C)nn(-c6ccccc6)c5C)cc4)c3C3CC3)CC2)cn1` [Compound 9-6], the pIC50 was > 7.00.
Under `Cc1ccc(C2(NC(=O)c3nnn(-c4ccc(-c5ccc(C#N)c(F)c5)cc4)c3C3CC3)CC2)cn1` [Compound 9-7] stands 6.30 to 7.00.
As to `Cc1nn(-c2ccccc2)c(C)c1-c1ccc(-n2nnc(C(=O)NC3(c4cncc(Cl)c4)CC3)c2C2CC2)cc1` [Compound 9-8], the pIC50 was 6.30 to 7.00.
The molecule `Cc1nn(C)c(C)c1-c1ccc(-n2nnc(C(=O)NCc3ccc(C(C)C)nc3)c2C2CC2)cc1` [Compound 9-9] had a pIC50 of 6.30 to 7.00.
The molecule `CCn1nc(C)c(-c2ccc(-n3nnc(C(=O)NCc4ccc(C)nc4)c3C3CC3)cc2)c1C` [Compound 9-10] gave a pIC50 of 6.30 to 7.00.
In the case of `CCn1cc(CNC(=O)c2nnn(-c3ccc(-c4c(C)nn(CC)c4C)cc3)c2C2CC2)cn1` [Compound 9-11] it was 6.30 to 7.00.
For the molecule `Cc1cncc(CNC(=O)c2nnn(-c3ccc(-c4c(C)nn(-c5ccccc5)c4C)cc3)c2C2CC2)c1` [Compound 9-12], the pIC50 was 6.30 to 7.00.
Under `CCc1ccc(C2(NC(=O)c3nnn(-c4ccc(-c5ccc(C#N)c(F)c5)cc4)c3C3CC3)CC2)cn1` [Compound 9-13] stands 6.30 to 7.00.
In the case of `Cc1nn(-c2ccccc2)c(C)c1-c1ccc(-n2nnc(C(=O)NCc3cccnc3)c2C2CC2)cc1` [Compound 9-14] it was 6.30 to 7.00.
On to `Cc1nn(-c2ccccc2)c(C)c1-c1ccc(-n2nnc(C(=O)NCc3ccc(C(C)C)nc3)c2C2CC2)cc1` [Compound 9-15], for which the negative-log IC50 (pIC50) is 6.30 to 7.00.
The molecule `CCc1cc(NC(=O)c2nnn(-c3ccc(-c4c(C)nn(CC)c4C)cc3)c2C2CC2)ccn1` [Compound 9-16] gave a pIC50 of 6.30 to 7.00.
In the case of `CCc1ccc(C2(NC(=O)c3nnn(-c4ccc(-c5ccc(C#N)cc5C)cc4)c3C3CC3)CC2)cn1` [Compound 9-17] it was 6.30 to 7.00.
In the case of `CCn1nc(C)c(-c2ccc(-n3nnc(C(=O)NCc4cnn(C)c4)c3C3CC3)cc2)c1C` [Compound 9-18] it was 6.30 to 7.00.
Turning to `CCn1nc(C)c(-c2ccc(-n3nnc(C(=O)NCc4cncc(C)c4)c3C3CC3)cc2)c1C` [Compound 9-19], the pIC50 is 6.30 to 7.00.
In the case of `CCc1ccc(C2(NC(=O)c3nnn(-c4ccc(-c5c(C)nn(-c6ccccc6)c5C)cc4)c3C3CC3)CC2)cn1` [Compound 9-20] it was 6.30 to 7.00; in that of `CCn1nc(C)c(-c2ccc(-n3nnc(C(=O)NCc4ccc(C(C)C)nc4)c3C3CC3)cc2)c1C` [Compound 9-21], 6.30 to 7.00.
Under `Cc1ccc(C2(NC(=O)c3nnn(-c4ccc(-c5ccc(C#N)cc5C)cc4)c3C3CC3)CC2)cn1` [Compound 9-22] stands 6.30 to 7.00; under `CCn1nc(C)c(-c2ccc(-n3nnc(C(=O)NCc4cnccc4C)c3C3CC3)cc2)c1C` [Compound 9-23], 6.30 to 7.00.
In the case of `COc1ccc(C2(NC(=O)c3nnn(-c4ccc(-c5ccc(C#N)cc5C)cc4)c3C3CC3)CC2)cn1` [Compound 9-24] it was 6.30 to 7.00.

Values taken from patent publication US20260001871A1, “TRIAZOLE DERIVATIVES AS MODULATORS OF MAS-RELATED G-PROTEIN RECEPTOR D” (ESCIENT PHARMACEUTICALS, INC., priority 2022, published 2026).
